Data on 14 compounds can be found in patent US20230150974A1 (Foghorn Therapeutics Inc., priority 2020, published 2023).

Assay [1] addresses T1, HiBiT-BRM (Homo sapiens, UniProt P51531).
T1 construct: expressed in transfected cells
The assay is described as follows: HiBiT-BRM cell-based degradation assay (Nano-Glo HiBiT Lytic Detection). To be noted: HeLa cells expressing HiBiT-BRM, 24 h; for DC50: read-out: BRM HiBit Degradation IC50. In outline: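 Luminescence from HiBiT–LgBiT complementation in lysates of a stable HiBiT-BRM HeLa line measured after 24 h compound exposure. Degradation expressed as percent relative to DMSO-treated cells and cells given 2 μM of a known BRM/BRG1 degrader.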
On the technique in general: HiBiT is a short tag that completes a luciferase, so light tracks the accessible tagged protein.

Assay [2] concerns the target T2, HiBit-BRG1 (Homo sapiens, UniProt P51532).
T2 construct: expressed in transfected cells
Nature of the assay: HiBit-BRG1 cell-based degradation assay (Nano-Glo HiBiT Lytic Detection). Conditions: HeLa cells expressing HiBit-BRG1 and LgBit, 24 h; for DC50: read-out: BRG1 HiBit Degradation IC50; for Dmax: read-out: BRG1 HiBit Degradation Maximum (%). In outline: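 Stable HeLa line co-expressing HiBit-BRG1 and LgBit, 5000 cells/well, treated 24 h in a tissue culture incubator. Lysed with Nano-Glo HiBiT lytic reagent, luminescence read. % degradation normalized to DMSO (high control) and 2 μM reference BRM/BRG1 degrader (low control).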

Each structure is given as a SMILES string.

T2 sequence (P51532 whole entry): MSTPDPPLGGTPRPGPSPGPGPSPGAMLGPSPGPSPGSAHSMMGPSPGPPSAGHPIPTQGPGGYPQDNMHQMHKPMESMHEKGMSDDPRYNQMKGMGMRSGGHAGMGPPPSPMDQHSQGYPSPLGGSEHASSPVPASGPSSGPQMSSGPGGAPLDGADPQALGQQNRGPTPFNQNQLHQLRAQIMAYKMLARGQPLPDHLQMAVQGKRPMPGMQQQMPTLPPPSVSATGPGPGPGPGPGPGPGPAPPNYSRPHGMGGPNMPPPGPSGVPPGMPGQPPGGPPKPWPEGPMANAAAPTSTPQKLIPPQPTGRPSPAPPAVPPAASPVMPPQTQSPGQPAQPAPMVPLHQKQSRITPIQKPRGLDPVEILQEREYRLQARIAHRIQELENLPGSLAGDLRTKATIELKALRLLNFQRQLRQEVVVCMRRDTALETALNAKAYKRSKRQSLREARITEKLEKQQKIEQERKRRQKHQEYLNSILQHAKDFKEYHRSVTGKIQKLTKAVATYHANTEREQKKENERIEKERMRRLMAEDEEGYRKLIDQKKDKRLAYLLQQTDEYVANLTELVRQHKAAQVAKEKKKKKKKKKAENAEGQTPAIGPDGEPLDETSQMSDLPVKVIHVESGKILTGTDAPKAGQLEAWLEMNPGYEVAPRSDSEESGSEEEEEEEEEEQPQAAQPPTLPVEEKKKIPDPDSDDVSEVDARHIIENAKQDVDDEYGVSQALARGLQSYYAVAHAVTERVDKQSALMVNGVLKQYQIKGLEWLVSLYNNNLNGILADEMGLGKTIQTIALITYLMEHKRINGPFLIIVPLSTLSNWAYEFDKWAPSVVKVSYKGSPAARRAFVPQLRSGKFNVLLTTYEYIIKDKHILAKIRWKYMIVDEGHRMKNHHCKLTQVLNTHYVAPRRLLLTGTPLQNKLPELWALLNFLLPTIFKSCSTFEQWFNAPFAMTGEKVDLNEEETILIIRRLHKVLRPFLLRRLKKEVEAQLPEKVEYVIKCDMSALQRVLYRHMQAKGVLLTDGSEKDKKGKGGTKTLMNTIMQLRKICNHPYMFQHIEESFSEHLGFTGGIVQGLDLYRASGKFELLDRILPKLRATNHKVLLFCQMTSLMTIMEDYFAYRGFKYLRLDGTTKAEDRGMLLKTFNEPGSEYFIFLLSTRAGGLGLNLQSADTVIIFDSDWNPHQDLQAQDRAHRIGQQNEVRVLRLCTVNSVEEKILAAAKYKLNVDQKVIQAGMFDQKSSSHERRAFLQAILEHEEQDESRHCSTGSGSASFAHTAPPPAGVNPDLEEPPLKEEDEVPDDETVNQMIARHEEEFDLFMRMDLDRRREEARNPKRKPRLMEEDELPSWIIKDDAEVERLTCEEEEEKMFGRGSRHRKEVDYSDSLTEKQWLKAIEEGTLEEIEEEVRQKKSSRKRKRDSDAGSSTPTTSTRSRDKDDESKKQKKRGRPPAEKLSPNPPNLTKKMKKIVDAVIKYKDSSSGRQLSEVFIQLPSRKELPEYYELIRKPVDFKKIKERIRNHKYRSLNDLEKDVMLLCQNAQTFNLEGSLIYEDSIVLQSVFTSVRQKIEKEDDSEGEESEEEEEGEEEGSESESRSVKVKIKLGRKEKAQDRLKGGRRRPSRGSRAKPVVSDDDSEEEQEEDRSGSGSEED
T1 sequence (P51531 whole entry): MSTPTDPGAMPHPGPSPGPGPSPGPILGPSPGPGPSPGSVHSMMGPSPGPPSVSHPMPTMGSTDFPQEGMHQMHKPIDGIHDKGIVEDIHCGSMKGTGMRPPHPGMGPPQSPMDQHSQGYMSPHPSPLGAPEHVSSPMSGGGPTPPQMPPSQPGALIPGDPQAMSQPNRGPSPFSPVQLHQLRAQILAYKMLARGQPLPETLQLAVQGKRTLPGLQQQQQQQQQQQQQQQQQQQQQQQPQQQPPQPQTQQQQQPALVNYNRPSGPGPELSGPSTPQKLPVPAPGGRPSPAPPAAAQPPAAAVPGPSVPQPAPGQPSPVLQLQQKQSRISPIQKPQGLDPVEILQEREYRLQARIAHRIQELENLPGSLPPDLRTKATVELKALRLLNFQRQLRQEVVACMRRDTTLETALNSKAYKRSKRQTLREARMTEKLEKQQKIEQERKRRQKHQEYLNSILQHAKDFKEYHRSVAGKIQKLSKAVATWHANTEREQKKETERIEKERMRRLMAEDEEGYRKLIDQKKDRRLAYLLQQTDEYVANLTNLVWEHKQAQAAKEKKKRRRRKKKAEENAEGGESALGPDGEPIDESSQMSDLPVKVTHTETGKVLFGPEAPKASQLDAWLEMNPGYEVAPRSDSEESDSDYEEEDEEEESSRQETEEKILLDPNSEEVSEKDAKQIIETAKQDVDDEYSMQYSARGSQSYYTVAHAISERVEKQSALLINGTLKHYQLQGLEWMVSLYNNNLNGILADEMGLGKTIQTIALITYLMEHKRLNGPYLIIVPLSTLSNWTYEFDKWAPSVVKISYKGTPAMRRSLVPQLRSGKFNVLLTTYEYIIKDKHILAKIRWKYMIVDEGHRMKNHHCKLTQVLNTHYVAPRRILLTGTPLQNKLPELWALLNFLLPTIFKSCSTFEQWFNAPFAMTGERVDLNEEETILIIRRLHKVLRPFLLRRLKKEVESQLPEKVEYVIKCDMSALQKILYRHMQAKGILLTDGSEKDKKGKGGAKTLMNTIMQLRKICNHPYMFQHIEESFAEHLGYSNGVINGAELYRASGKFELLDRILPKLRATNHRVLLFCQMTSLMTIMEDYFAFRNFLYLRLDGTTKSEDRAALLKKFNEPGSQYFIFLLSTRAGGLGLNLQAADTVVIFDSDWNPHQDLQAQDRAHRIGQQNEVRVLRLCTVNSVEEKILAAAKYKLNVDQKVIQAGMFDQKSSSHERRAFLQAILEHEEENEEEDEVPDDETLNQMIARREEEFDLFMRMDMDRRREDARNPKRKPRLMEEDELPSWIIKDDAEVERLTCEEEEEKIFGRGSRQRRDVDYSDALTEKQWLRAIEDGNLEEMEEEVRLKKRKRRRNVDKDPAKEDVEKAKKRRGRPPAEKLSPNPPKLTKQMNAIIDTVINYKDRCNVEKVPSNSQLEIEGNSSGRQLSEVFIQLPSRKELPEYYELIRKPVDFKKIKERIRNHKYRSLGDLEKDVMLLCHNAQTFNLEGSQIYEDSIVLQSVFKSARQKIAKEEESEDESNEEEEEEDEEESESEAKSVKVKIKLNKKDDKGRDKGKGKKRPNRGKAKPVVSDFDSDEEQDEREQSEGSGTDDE

With `Nc1nnc(-c2ccccc2O)cc1OCCc1ccc(C(=O)NCCCCCCCCC(=O)NCc2ccc(S(=O)(=O)Nc3cccc4c(Cl)c[nH]c34)cc2)cc1` [Compound 23, 9-[[4-(2-[[3-amino-6-(2-hydroxyphenyl)pyridazin-4-yl]oxy]ethyl)phenyl]formamido]-N-([4-[(3-chloro-1H-indol-7-yl)sulfamoyl]phenyl]methyl)nonanamide], in assay [1], the “BRM HiBit Degradation Maximum (%)” value is recorded as “C (“C” indicates maximum degradation <50%)” and the DC50 was > 1000 nM. Further, in assay [2], the DC50 was > 1000 nM and the Dmax is < 50%.

`Nc1nnc(-c2ccccc2O)cc1N1CCN(CCNC(=O)CCCCCCCOc2cccc3c2C(=O)N(C2CCC(=O)NC2=O)C3=O)CC1` (centres unmarked) [Compound 90, N-(2-[4-[3-amino-6-(2-hydroxyphenyl)pyridazin-4-yl]piperazin-1-yl]ethyl)-8-[[2-(2,6-dioxopiperidin-3-yl)-1,3-dioxo-2,3-dihydro-1H-isoindol-4-yl]oxy]octanamide]: in assay [1], the “BRM HiBit Degradation Maximum (%)” value was “C (“C” indicates maximum degradation <50%)” and the DC50 was > 1000 nM. In assay [2], the DC50 was > 1000 nM and the Dmax is < 50%.

`Nc1nnc(-c2ccccc2O)cc1OCCc1ccc(CNCCCCCNc2cccc3nnn(C4CCC(=O)NC4=O)c(=O)c23)cc1` (centres unmarked) [Compound 120, 3-(5-[[5-([[4-(2-[[3-amino-6-(2-hydroxyphenyl)pyridazin-4-yl]oxy]ethyl)phenyl]methyl]amino)pentyl]amino]-4-oxo-1,2,3-benzotriazin-3-yl)piperidine-2,6-dione]: in assay [1], the “BRM HiBit Degradation Maximum (%)” value was “B (“B” indicates maximum degradation ≥50%)” and the DC50 was > 100 nM. Further, in assay [2], the DC50 was > 1000 nM and the Dmax is > 50%.

For `Cc1ncsc1-c1ccc(CNC(=O)[C@@H]2C[C@@H](O)CN2C(=O)[C@@H](NC(=O)CCCCCCCCCCCCCCCC(=O)NCc2ccc(CCN(C)c3cc(-c4ccccc4O)nnc3N)cc2)C(C)(C)C)cc1` [Compound 133, N1-(4-(2-((3-amino-6-(2-hydroxyphenyl)pyridazin-4-yl)(methyl)amino)ethyl)benzyl)-N17-((S)-1-((2S,4R)-4-hydroxy-2-((4-(4-methylthiazol-5-yl)benzyl)carbamoyl)pyrrolidin-1-yl)-3,3-dimethyl-1-oxobutan-2-yl)heptadecanediamide], in assay [1], the “BRM HiBit Degradation Maximum (%)” value is reported as “B (“B” indicates maximum degradation ≥50%)” and the DC50 was > 100 nM. Also, in assay [2], the DC50 is > 1000 nM and the Dmax was < 50%.

For `Nc1nnc(-c2ccccc2O)cc1NCCc1ccc(CNCCN2CCN(c3cccc4c3C(=O)N(C3CCC(=O)NC3=O)C4=O)CC2)cc1` (centres unmarked) [Compound 166, 4-(4-(2-((4-(2-((3-amino-6-(2-hydroxyphenyl)pyridazin-4-yl)amino)ethyl)benzyl)amino)ethyl)piperazin-1-yl)-2-(2,6-dioxopiperidin-3-yl)isoindoline-1,3-dione], in assay [1], the “BRM HiBit Degradation Maximum (%)” value was “C (“C” indicates maximum degradation <50%)” and the DC50 was > 1000 nM. Also, in assay [2], the DC50 was > 1000 nM and the Dmax is < 50%.

As for `Nc1nnc(-c2ccccc2O)cc1OCCc1ccc(C(=O)NCCCCCC(=O)NCc2ccc(S(=O)(=O)Nc3cccc4c(Cl)c[nH]c34)cc2)cc1` [Compound 14, 6-[[4-(2-[[3-amino-6-(2-hydroxyphenyl)pyridazin-4-yl]oxy]ethyl)phenyl]formamido]-N-([4-[(3-chloro-1H-indol-7-yl)sulfamoyl]phenyl]methyl)hexanamide], in assay [1], the “BRM HiBit Degradation Maximum (%)” value is given as “C (“C” indicates maximum degradation <50%)” and the DC50 was > 1000 nM. Moreover, in assay [2], the DC50 was > 1000 nM and the Dmax is < 50%.

In the case of `Cc1ncsc1-c1ccc([C@H](C)NC(=O)[C@@H]2C[C@@H](O)CN2C(=O)[C@@H](NC(=O)CCCCN2CCN(CCC(=O)NCc3ccc(CCOc4cc(-c5ccccc5O)nnc4N)cc3)CC2)C(C)(C)C)cc1` [Compound 262, (2S,4R)-1-((S)-2-(5-(4-(3-((4-(2-((3-amino-6-(2-hydroxyphenyl)pyridazin-4-yl)oxy)ethyl)benzyl)amino)-3-oxopropyl)piperazin-1-yl)pentanamido)-3,3-dimethylbutanoyl)-4-hydroxy-N-((S)-1-(4-(4-methylthiazol-5-yl)phenyl)ethyl)pyrrolidine-2-carboxamide], in assay [1], the “BRM HiBit Degradation Maximum (%)” value is “B (“B” indicates maximum degradation ≥50%)” and the DC50 is > 1000 nM. Besides, in assay [2], the DC50 is > 1000 nM and the Dmax was < 50%.

For `Nc1nnc(-c2ccccc2O)cc1OCCc1ccc(CNCCN2CCN(c3cccc4c3C(=O)N(C3CCC(=O)NC3=O)C4=O)CC2)cc1` (centres unmarked) [Compound 110, 4-[4-[2-([[4-(2-[[3-amino-6-(2-hydroxyphenyl)pyridazin-4-yl]oxy]ethyl)phenyl]methyl]amino)ethyl]piperazin-1-yl]-2-(2,6-dioxopiperidin-3-yl)isoindole-1,3-dione], in assay [1], the “BRM HiBit Degradation Maximum (%)” value is “A (“A” indicates maximum degradation ≥75%)” and the DC50 is > 10 nM. Besides, in assay [2], the DC50 was > 100 nM and the Dmax was > 50%.

On to `Cc1ncsc1-c1ccc([C@H](C)NC(=O)[C@@H]2C[C@@H](O)CN2C(=O)[C@@H](NC(=O)CCCCCCCCCCN2C[C@@H]3CN(Cc4ccc(CCOc5cc(-c6ccccc6O)nnc5N)cc4)C[C@@H]3C2)C(C)(C)C)cc1` [Compound 264, (2S,4R)-1-((2S)-2-(11-(5-(4-(2-((3-amino-6-(2-hydroxyphenyl)pyridazin-4-yl)oxy)ethyl)benzyl)hexahydropyrrolo[3,4-c]pyrrol-2(1H)-yl)undecanamido)-3,3-dimethylbutanoyl)-4-hydroxy-N-((S)-1-(4-(4-methylthiazol-5-yl)phenyl)ethyl)pyrrolidine-2-carboxamide], for which, in assay [1], the “BRM HiBit Degradation Maximum (%)” value is given as “A (“A” indicates maximum degradation ≥75%)” and the DC50 was > 10 nM. In addition, in assay [2], the DC50 is > 100 nM and the Dmax was > 50%.

Turning to `Cc1ncsc1-c1ccc(CNC(=O)[C@H]2C[C@H](O)CN2C(=O)[C@H](NC(=O)COCCOCCNC(=O)c2ccc(CCOc3cc(-c4ccccc4O)nnc3N)cc2)C(C)(C)C)cc1` (stereo in doubt) [Compound 59, (2R,4S)-1-[(2R)-2-[2-[2-(2-[[4-(2-[[3-amino-6-(2-hydroxyphenyl)pyridazin-4-yl]oxy]ethyl)phenyl]formamido]ethoxy)ethoxy]acetamido]-3,3-dimethylbutanoyl]-4-hydroxy-N-[[4-(4-methyl-1,3-thiazol-5-yl)phenyl]methyl]pyrrolidine-2-carboxamide], in assay [1], the “BRM HiBit Degradation Maximum (%)” value is “B (“B” indicates maximum degradation ≥50%)” and the DC50 is > 1000 nM. Besides, in assay [2], the DC50 is > 1000 nM and the Dmax is < 50%.

In the case of `Cc1ncsc1-c1ccc(CNC(=O)[C@@H]2C[C@@H](O)CN2C(=O)[C@@H](NC(=O)CCCCCCCCCCCCCCCC(=O)NCc2ccc(CCOc3cc(-c4ccccc4O)nnc3N)cc2)C(C)(C)C)cc1` [Compound 32, N1-(4-(2-((3-amino-6-(2-hydroxyphenyl)pyridazin-4-yl)oxy)ethyl)benzyl)-N17-((S)-1-((2S,4R)-4-hydroxy-2-((4-(4-methylthiazol-5-yl)benzyl)carbamoyl)pyrrolidin-1-yl)-3,3-dimethyl-1-oxobutan-2-yl)heptadecanediamide], in assay [1], the “BRM HiBit Degradation Maximum (%)” value is “A (“A” indicates maximum degradation ≥75%)” and the DC50 was > 10 nM. Besides, in assay [2], the DC50 is > 1000 nM and the Dmax was < 50%.

Regarding `Cc1ncsc1-c1ccc(CNC(=O)[C@@H]2C[C@@H](O)CN2C(=O)[C@@H](NC(=O)CCCCCCCCC(=O)NCc2ccc(CCOc3cc(-c4ccccc4O)nnc3N)cc2)C(C)(C)C)cc1` [Compound 138, N1-(4-(2-((3-amino-6-(2-hydroxyphenyl)pyridazin-4-yl)oxy)ethyl)benzyl)-N10-((S)-1-((2S,4R)-4-hydroxy-2-((4-(4-methylthiazol-5-yl)benzyl)carbamoyl)pyrrolidin-1-yl)-3,3-dimethyl-1-oxobutan-2-yl)decanediamide], in assay [1], the “BRM HiBit Degradation Maximum (%)” value is on record as “A (“A” indicates maximum degradation ≥75%)” and the DC50 was > 100 nM. Also, in assay [2], the DC50 is > 1000 nM and the Dmax was < 50%.

Turning to `Cc1ncsc1-c1ccc(CNC(=O)[C@@H]2C[C@@H](O)CN2C(=O)[C@@H](NC(=O)CCCCC(=O)NCc2ccc(CCOc3cc(-c4ccccc4O)nnc3N)cc2)C(C)(C)C)cc1` [Compound 27, N′-[[4-(2-[[3-amino-6-(2-hydroxyphenyl)pyridazin-4-yl]oxy]ethyl)phenyl]methyl]-N-[(2S)-1-[(2S,4R)-4-hydroxy-2-([[4-(4-methyl-1,3-thiazol-5-yl)phenyl]methyl]carbamoyl)pyrrolidin-1-yl]-3,3-dimethyl-1-oxobutan-2-yl]hexanediamide], in assay [1], the “BRM HiBit Degradation Maximum (%)” value is recorded as “A (“A” indicates maximum degradation ≥75%)” and the DC50 is > 1000 nM. In assay [2], the DC50 was > 1000 nM and the Dmax is < 50%.

For the compound `Nc1nnc(-c2ccccc2O)cc1OCCc1ccc(CNC(=O)CCCCNc2ccc3c(c2)C(=O)N(C2CCC(=O)NC2=O)C3=O)cc1` (centres unmarked) [Compound 154, N-(4-(2-((3-amino-6-(2-hydroxyphenyl)pyridazin-4-yl)oxy)ethyl)benzyl)-5-((2-(2,6-dioxopiperidin-3-yl)-1,3-dioxoisoindolin-5-yl)amino)pentanamide], in assay [1], the “BRM HiBit Degradation Maximum (%)” value was “C (“C” indicates maximum degradation <50%)” and the DC50 is > 1000 nM. Also, in assay [2], the DC50 was > 1000 nM and the Dmax was < 50%.
